In brackets after ≈: the same amount, converted by molar mass. Activity calls are given as the source filed them. No cut-off for these calls is given here.
How the values were obtained:
RAW264.7 [1] = assay: Antiinflammatory activity against mouse RAW264.7 cells assessed as reduction in LPS-induced NO production at 50 uM incubated for 24 hrs by Griess assay; format: functional, cell-based
[2] = Cytotoxicity against human A549 cells; format: cell-based
Acinetobacter baumannii [3] = assay: Antibacterial activity against colistin-resistant Acinetobacter baumannii 24 assessed as reduction in bacterial growth incubated for 24 hrs by standard broth microdilution method; format: functional
Acinetobacter baumannii [4] = assay: Antibacterial activity against colistin-resistant Acinetobacter baumannii 22P assessed as reduction in bacterial growth incubated for 24 hrs by standard broth microdilution method; format: functional
Acinetobacter baumannii [5] = assay: Antibacterial activity against colistin-resistant Acinetobacter baumannii 21R assessed as reduction in bacterial growth incubated for 24 hrs by standard broth microdilution method; format: functional
Acinetobacter baumannii [6] = assay: Antibacterial activity against colistin-resistant Acinetobacter baumannii 14 assessed as reduction in bacterial growth incubated for 24 hrs by standard broth microdilution method; format: functional
RAW264.7 [7] = assay: Antiinflammatory activity against mouse RAW264.7 cells assessed as reduction in LPS-induced NO production at 1 to 10 uM incubated for 24 hrs by Griess assay relative to control; format: functional; conditions: dose microM 1-10
Acinetobacter baumannii [8] = assay: Antibacterial activity against colistin-resistant Acinetobacter baumannii 17 assessed as reduction in bacterial growth incubated for 24 hrs by standard broth microdilution method; format: functional
Acinetobacter baumannii [9] = assay: Antibacterial activity against colistin-resistant Acinetobacter baumannii 11 assessed as reduction in bacterial growth incubated for 24 hrs by standard broth microdilution method; format: functional
RAW264.7 [10] = assay: Cytotoxicity against mouse RAW264.7 cells assessed as reduction in cell viability at 1 to 10 uM incubated for 24 hrs; format: cell-based; conditions: raw264.7, 24 h, dose 1-10 µM

CC1CN(C(=O)CC(C)(C)C)CCN1C(=S)Nc1cc(C(F)(F)F)cc(C(F)(F)F)c1 (racemic)
inhibition (RAW264.7 [1]): Active
CC50 [2]: 73.2 µM
MIC (Acinetobacter baumannii [3]): 6.25 µM (≈ 2.93 µg/mL)
MIC (Acinetobacter baumannii [4]): 6.25 µM (≈ 2.93 µg/mL)
MIC (Acinetobacter baumannii [5]): 6.25 µM (≈ 2.93 µg/mL)
MIC (Acinetobacter baumannii [6]): 50 µM (≈ 23.5 µg/mL)
inhibition (INH) (RAW264.7 [7]): 40%

CC1CN(C(=O)CC2CCCCC2)CCN1C(=S)Nc1ccc(C(F)(F)F)cc1 (configuration not stated)
MIC (Acinetobacter baumannii [3]): 3.12 µM (≈ 1.33 µg/mL)
MIC (Acinetobacter baumannii [4]): 6.25 µM (≈ 2.67 µg/mL)
MIC (Acinetobacter baumannii [5]): 25 µM (≈ 10.7 µg/mL)
MIC (Acinetobacter baumannii [6]): 12.5 µM (≈ 5.34 µg/mL)

CC1CN(C(=O)Cc2ccccc2)CCN1C(=S)Nc1cc(C(F)(F)F)cc(C(F)(F)F)c1 (configuration not stated)
MIC (Acinetobacter baumannii [8]): 3.12 µM (≈ 1.53 µg/mL)
MIC (Acinetobacter baumannii [9]): 6.25 µM (≈ 3.06 µg/mL)
inhibition (RAW264.7 [1]): Active
CC50 [2]: 130 µM
MIC (Acinetobacter baumannii [3]): 6.25 µM (≈ 3.06 µg/mL)
MIC (Acinetobacter baumannii [5]): 3.12 µM (≈ 1.53 µg/mL)
MIC (Acinetobacter baumannii [6]): 3.12 µM (≈ 1.53 µg/mL)

O=C(CC1CCCCC1)N1CCN(C(=S)Nc2cc(C(F)(F)F)cc(C(F)(F)F)c2)C(c2ccccc2)C1 (configuration not stated)
Activity (RAW264.7 [10]): Toxic
MIC (Acinetobacter baumannii [9]): 3.12 µM (≈ 1.74 µg/mL)
inhibition (RAW264.7 [1]): Active
CC50 [2]: 125 µM
MIC (Acinetobacter baumannii [3]): 3.12 µM (≈ 1.74 µg/mL)
MIC (Acinetobacter baumannii [4]): 6.25 µM (≈ 3.49 µg/mL)
MIC (Acinetobacter baumannii [5]): 3.12 µM (≈ 1.74 µg/mL)
inhibition (INH) (RAW264.7 [7]): >=80%

CC1CN(C(=O)CC2CCCCC2)CCN1C(=S)Nc1ccc(C#N)cc1 (configuration not stated)
Activity (Acinetobacter baumannii [8]): inactive
Activity (Acinetobacter baumannii [9]): inactive
inhibition (RAW264.7 [1]): Active
Activity (Acinetobacter baumannii [3]): inactive
Activity (Acinetobacter baumannii [4]): inactive
Activity (Acinetobacter baumannii [5]): inactive
Activity (Acinetobacter baumannii [6]): inactive

CC1CN(C(=O)Cc2ccccc2)CCN1C(=S)Nc1ccc(Cl)cc1 (configuration not stated)
Activity (Acinetobacter baumannii [8]): inactive
Activity (Acinetobacter baumannii [9]): inactive
inhibition (RAW264.7 [1]): Active
Activity (Acinetobacter baumannii [3]): inactive
Activity (Acinetobacter baumannii [4]): inactive
Activity (Acinetobacter baumannii [5]): inactive
Activity (Acinetobacter baumannii [6]): inactive

CC1CN(C(=O)Cc2ccccc2)CCN1C(=S)Nc1ccc(C(F)(F)F)cc1 (configuration not stated)
Activity (Acinetobacter baumannii [8]): inactive
Activity (Acinetobacter baumannii [9]): inactive
inhibition (RAW264.7 [1]): Active
Activity (Acinetobacter baumannii [3]): inactive
Activity (Acinetobacter baumannii [4]): inactive
Activity (Acinetobacter baumannii [5]): inactive
Activity (Acinetobacter baumannii [6]): inactive

CC1CN(C(=O)OC(C)(C)C)CCN1C(=S)Nc1cc(C(F)(F)F)cc(C(F)(F)F)c1 (configuration not stated)
inhibition (RAW264.7 [1]): Active
CC50 [2]: 112 µM
MIC (Acinetobacter baumannii [6]): 3.12 µM (≈ 1.47 µg/mL)
inhibition (INH) (RAW264.7 [7]): 40%

CC(C)(C)CC(=O)N1CCN(C(=S)Nc2cc(C(F)(F)F)cc(C(F)(F)F)c2)C(c2ccccc2)C1 (configuration not stated)
MIC (Acinetobacter baumannii [9]): 3.12 µM (≈ 1.66 µg/mL)
inhibition (RAW264.7 [1]): Active
MIC (Acinetobacter baumannii [3]): 3.12 µM (≈ 1.66 µg/mL)
MIC (Acinetobacter baumannii [4]): 3.12 µM (≈ 1.66 µg/mL)
MIC (Acinetobacter baumannii [5]): 3.12 µM (≈ 1.66 µg/mL)
inhibition (INH) (RAW264.7 [7]): >=80%

Reference: ChEMBL document CHEMBL4725298, “Exploration of piperazine-derived thioureas as antibacterial and anti-inflammatory agents. In vitro evaluation against clinical isolates of colistin-resistant Acinetobacter baumannii” (Bioorg Med Chem Lett, 2020)
